Converted amounts (≈) assume the structure as drawn. The source made the active and inactive calls. The calls are words filed in the database; no cut-off is given here. Positions of bridges follow the written chain, without caps; N, C: chain ends. Residues, ends and D or L forms follow the SMILES beside them. Chains are numbered I, II in the order given. *: point of attachment. Butyryl = CCCC(=O)*
Columns and labels:
Cell wall [1] = assay: Induction of cell wall permeability in Candida albicans 2.2086 at 16 uM by NPN probe based fluorescence analysis; format: subcellular
Candida albicans [2] = assay: Antifungal activity against Candida albicans assessed as inhibition of fungal growth incubated for 48 hrs in presence of FeCl3; format: functional, organism-based
Cell membrane [3] = assay: Induction of cell membrane damage in Candida albicans assessed as scattered distribution of cell wall and cell membrane structures, loss of integrity and leakage of contents at 16 uM incubated for 1 hr by scanning electron microscopy; format: subcellular
Candida albicans [4] = assay: Antifungal activity against fluconazole-resistant Candida albicans 56214 infected in ICR mouse assessed as log reduction in fungal burden on the infected skin at 5 mg/ml administered topically bid for 3 days starting at 12 hrs post-infection and measured after 7 days; format: functional; details: time 7 day
Candida albicans [5] = assay: Antifungal activity against Candida albicans cgmcc 2.2086 assessed as inhibition of fungal growth incubated for 48 hrs; format: functional
Candida albicans [6] = assay: Antifungal activity against Candida albicans assessed as inhibition of fungal growth incubated for 48 hrs in presence of NH4Cl; format: functional, organism-based
Candida albicans [7] = assay: Antifungal activity against fluconazole-resistant Candida albicans 56214 infected in ICR mouse assessed as wound healing with appearance of new skin tissue at 5 mg/ml administered topically bid for 3 days starting at 12 hrs post-infection and measured for 6 days; format: functional, organism-based; details: time 6.0 day
[8] = Toxicity against human RBC assessed as hemolysis rate at 128 ug/ml incubated for 1 hr; format: cell-based, Erythrocyte; details: red blood cells (RBC), dose 128 µg/ml, read-out: Activity
RAW264.7 = assay: Cytotoxicity against mouse RAW264.7 cells assessed as damage to cells at 4XMIC incubated for 8 hrs by Calcein-AM/PI staining based fluorescence microscopy; format: toxicity, cell-based; details: raw264.7, 8 h
Candida albicans [9] = assay: Antifungal activity against Candida albicans 58288 assessed as inhibition of fungal growth incubated for 48 hrs; format: functional
Candida albicans [10] = assay: Induction of ROS production in Candida albicans 2.2086 assessed as increase in intracellular ROS accumulation at <4 uM incubated for 1 hr by DCFH-DA staining based fluorescence analysis; format: functional, organism-based
Candida albicans [11] = assay: Antifungal activity against Candida albicans assessed as inhibition of fungal growth incubated for 48 hrs in presence of KCl; format: functional, organism-based
HEK-293T [12] = assay: Cytotoxicity against human HEK293T cells assessed as cell viability at 8 to 128 ug/ml incubated for 4 hrs by MTT assay; format: toxicity, cell-based; details: dose 8-128 µg/ml
Candida albicans [13] = assay: Antifungal activity against Candida albicans assessed as inhibition of fungal growth preincubated with 4 mg/ml trypsin for 8 hrs followed by incubation with fungus for 48 hrs; format: functional, organism-based
Candida albicans [14] = assay: Antifungal activity against Candida albicans assessed as inhibition of fungal growth incubated for 48 hrs in presence of MgCl2; format: functional, organism-based
Candida albicans [15] = assay: Fungicidal killing kinetic activity against fluconazole-resistant Candida albicans 56214 assessed as killing of fungi at 1XMIC to 4XMIC incubated with fungus in PBS solution for 3 mins followed by culturing on YPD plate for 48 hrs; format: functional, organism-based; details: time 2883.0 min
Cell membrane [16] = assay: Disruption of cytoplasmic membrane in Candida albicans 2.2086 assessed as increase in membrane depolarization at 1XMIC to 4XMIC measured after 500 secs by diSC3-5 dye based potentiometric analysis; format: subcellular; details: time 500.0 sec
Candida albicans [17] = assay: Antifungal activity against fluconazole-resistant Candida albicans 56214 infected in ICR mouse assessed as reduction in TNF-alpha expression in skin wound at 5 mg/ml administered topically bid for 3 days starting at 12 hrs post-infection and measured after 7 days by immunofluorescence analysis; format: functional, organism-based; details: time 7.0 day
Cell membrane [18] = assay: Induction of cell membrane damage in Candida albicans assessed as scattered distribution of cell wall and cell membrane structures, loss of integrity and leakage of contents at 16 uM incubated for 1 hr by transmission electron microscopy; format: subcellular
Candida albicans [19] = assay: Antifungal activity against fluconazole-resistant Candida albicans 56214 infected in ICR mouse assessed as reduction in IL-6 expression in skin wound at 5 mg/ml administered topically bid for 3 days starting at 12 hrs post-infection and measured after 7 days by immunofluorescence analysis; format: functional, organism-based; details: time 7.0 day
Candida albicans [20] = assay: Antifungal activity against Candida albicans assessed as inhibition of fungal growth incubated for 48 hrs in presence of NaCl; format: functional, organism-based
Candida albicans [21] = assay: Antifungal activity against Candida albicans 17546 assessed as inhibition of fungal growth incubated for 48 hrs; format: functional
Candida albicans [22] = assay: Antifungal activity against fluconazole-resistant Candida albicans 56214 infected in ICR mouse assessed as reduction in severity of skin infection at 5 mg/ml administered topically bid for 3 days starting at 12 hrs post-infection and measured after 7 days by PAS staining based analysis; format: functional, organism-based; details: time 7.0 day
Candida albicans [23] = assay: Antifungal activity against Candida albicans SP 3902 assessed as inhibition of fungal growth incubated for 48 hrs; format: functional
Candida albicans [24] = assay: Induction of morphological changes in Candida albicans 2.2086 at 8 to 16 uM incubated for 2 hrs by fluorescence cell imaging system; format: functional, organism-based; details: dose 8-16 µM
Cell wall [25] = assay: Induction of cell wall permeability in Candida albicans 2.2086 assessed as increase in cell wall damage by NPN probe based fluorescence analysis; format: subcellular; details: dose 4-128 µM
[26] = Cytotoxicity against human HEK293T cells assessed as cell survival rate at 128 ug/ml incubated for 4 hrs by MTT assay; format: toxicity, cell-based, HEK-293T; details: dose 128 µg/ml, read-out: Activity
[27] = Drug penetration into mature fluconazole-resistant Candida albicans 56214 biofilms assessed as increase in green fluorescence intensity at 8 to 16 uM using FITC-labeled compound incubated in dark for 3 hrs by DAPI staining based laser confocal microscopy; format: ADME; details: dose 8-16 µM
Candida albicans [28] = assay: Antifungal activity against Candida albicans assessed as inhibition of fungal growth compound preincubated with upto 8 mg/ml proteinase K for 4 hrs followed by incubation with fungus for 48 hrs; format: functional, organism-based
Candida albicans [29] = assay: Antifungal activity against Candida albicans assessed as inhibition of fungal growth preincubated with 8 mg/ml chymotrypsin for 8 hrs followed by incubation with fungus for 48 hrs; format: functional, organism-based
Candida albicans [30] = assay: Antifungal activity against Candida albicans SP 3903 assessed as inhibition of fungal growth incubated for 48 hrs; format: functional
Candida albicans [31] = assay: Inhibition of biofilm formation of fluconazole-resistant Candida albicans 56214 at 8 uM incubated for 48 hrs by crystal violet staining based analysis; format: functional
Candida albicans [32] = assay: Antifungal activity against Candida albicans 2.3989 assessed as inhibition of fungal growth incubated for 48 hrs; format: functional
Candida albicans [33] = assay: Antifungal activity against Candida albicans 14936 assessed as inhibition of fungal growth incubated for 48 hrs; format: functional
Candida albicans [34] = assay: Antifungal activity against Candida albicans assessed as inhibition of fungal growth incubated for 48 hrs in presence of CaCl2; format: functional, organism-based
Candida albicans [35] = assay: Antifungal activity against fluconazole-resistant Candida albicans 56214 assessed as inhibition of fungal growth incubated for 48 hrs; format: functional
Cell membrane [36] = assay: Disruption of cytoplasmic membrane in Candida albicans 2.2086 assessed as increase in membrane depolarization at 1XMIC by diSC3-5 dye based potentiometric analysis
Candida albicans [37] = assay: Antifungal activity against Candida albicans SP 3931 assessed as inhibition of fungal growth incubated for 48 hrs; format: functional
Candida albicans [38] = assay: Fungicidal activity against fluconazole-resistant Candida albicans 56214 assessed as killing effect within biofilms by measuring increase in red fluorescence intensity at 8 uM incubated for 3 hrs by SYTO9/PI staining based fluorescence microscopy; format: functional
[39] = Drug localization in Candida albicans cell membrane using FITC-labeled compound at 8 uM incubated for 3 hrs by DAPI staining based fluorescence microscopy; format: ADME, cell membranes
Candida albicans [40] = assay: Antifungal activity against Candida albicans assessed as inhibition of fungal growth preincubated with 8 mg/ml proteinase K for 8 hrs followed by incubation with fungus for 48 hrs; format: functional, organism-based
Candida albicans [41] = assay: Antifungal activity against Candida albicans assessed as inhibition of fungal growth compound preincubated with upto 4 mg/ml trypsin for 4 hrs followed by incubation with fungus for 48 hrs; format: functional, organism-based
Candida albicans [42] = assay: Antifungal activity against Candida albicans assessed as inhibition of fungal growth incubated for 48 hrs in presence of ZnCl2; format: functional, organism-based
Candida albicans [43] = assay: Antifungal activity against Candida albicans assessed as inhibition of fungal growth compound preincubated with upto 8 mg/ml chymotrypsin for 4 hrs followed by incubation with fungus for 48 hrs; format: functional, organism-based
Candida albicans [44] = assay: Antifungal activity against fluconazole-resistant Candida albicans 56214 infected in ICR mouse assessed as reduction in oxidative stress by measuring decrease in ROS accumulation in skin wounds at 5 mg/ml administered topically bid for 3 days starting at 12 hrs post-infection and measured after 7 days by fluorescence staining based analysis; format: functional, organism-based; details: time 7.0 day
[45] = Drug localization in Candida albicans cell membrane using FITC-labeled compound by FITC/PI staining based confocal microscopy; format: ADME, cell membranes
Candida albicans [46] = assay: Fungicidal activity against fluconazole-resistant Candida albicans 56214 assessed as killing effect by measuring orange fluorescence at 8 uM incubated for 1 hr by SYTO9/PI staining based fluorescence microscopy; format: functional
Candida albicans [47] = assay: Antifungal activity against fluconazole-resistant Candida albicans 56214 infected in ICR mouse assessed as elimination of fungal hyphae on the infected skin at 5 mg/ml administered topically bid for 3 days starting at 12 hrs post-infection and measured after 7 days by PAS staining; format: functional, organism-based; details: time 7.0 day
HEK-293T [48] = assay: Cytotoxicity against human HEK293T cells assessed as damage to cells at 4XMIC incubated for 8 hrs by Calcein-AM/PI staining based fluorescence microscopy; format: toxicity, cell-based

In the case of `CCCC(=O)NCC(=O)NCC(=O)NCC(=O)N[C@@H](CCCCNC(=O)[C@@H]1CCCN1C(=O)[C@H](CCCNC(=N)N)NC(=O)[C@@H]1CCCN1C(=O)[C@H](CCCNC(=N)N)NC(=O)[C@@H]1CCCN1C(=O)[C@@H](N)CCCNC(=N)N)C(=O)N[C@@H](CCCCNC(=O)[C@@H]1CCCN1C(=O)[C@H](CCCNC(=N)N)NC(=O)[C@@H]1CCCN1C(=O)[C@H](CCCNC(=N)N)NC(=O)[C@@H]1CCCN1C(=O)[C@@H](N)CCCNC(=N)N)C(=O)N[C@@H](CCCNC(=N)N)C(=O)N1CCC[C@H]1C(=O)N[C@@H](CCCNC(=N)N)C(=O)N1CCC[C@H]1C(=O)N[C@@H](CCCNC(=N)N)C(=O)N1CCC[C@H]1C(N)=O` (I: Butyryl-GGGKKRPRPRP-NH2 / II: H-RPRPRP / III: H-RPRPRP; amide I:4-II:C, I:5-III:C), the Activity (Cell wall [1]) is reported as 100%, the Activity (Candida albicans [2]) is reported as “Active” and the Activity (Cell membrane [3]) is reported as “Active”. For the same compound, the “log(activity)” value (Candida albicans [4]) was about 1.7, the MIC (Candida albicans [5]) was 4 µM (≈ 11.2 µg/mL) and the Activity (Candida albicans [6]) was “Active”. For the same compound, the Activity (Candida albicans [7]) was “Active”, the hemolysis at 1 h, 128 ug/ml [8] was under 2% and the Activity (RAW264.7) was “Non-toxic”. For the same compound, the MIC (Candida albicans [9]) was 8 µM (≈ 22.4 µg/mL), the Activity (Candida albicans [10]) was “Active” and the Activity (Candida albicans [11]) was “Active”. For the same compound, the Activity (HEK-293T [12]) was “Non-toxic”, the Activity (Candida albicans [13]) was “Active” and the Activity (Candida albicans [14]) was “Active”. The Activity (Candida albicans [15]) was “Active”, the Activity (Cell membrane [16]) was “Active” and the Activity (Candida albicans [17]) was “Active”. For the same compound, the Activity (Cell membrane [18]) was “Active”, the Activity (Candida albicans [19]) was “Active” and the Activity (Candida albicans [20]) was “Active”. The MIC (Candida albicans [21]) was 16 µM (≈ 44.7 µg/mL), the Activity (Candida albicans [22]) was “Active” and the MIC (Candida albicans [23]) was 4 µM (≈ 11.2 µg/mL). The Activity (Candida albicans [24]) was “Active”, the Activity (Cell wall [25]) was “Dose-dependent-effect” and the viability at 4 h, 128 ug/ml [26] was 95%. For the same compound, the Drug uptake [27] was “Active”, the Activity (Candida albicans [28]) was “Active” and the Activity (Candida albicans [29]) was “Active”. The MIC (Candida albicans [30]) was 4 µM (≈ 11.2 µg/mL), the inhibition at 8 µM (Candida albicans [31]) was 100% and the MIC (Candida albicans [32]) was 4 µM (≈ 11.2 µg/mL). The MIC (Candida albicans [33]) was 4 µM (≈ 11.2 µg/mL), the Activity (Candida albicans [34]) was “Active” and the MIC (Candida albicans [35]) was 4 µM (≈ 11.2 µg/mL). The Activity (Cell membrane [36]) was “Active; Effective Depolarization Observed”, the MIC (Candida albicans [37]) was 4 µM (≈ 11.2 µg/mL) and the Activity (Candida albicans [38]) was over 90%. For the same compound, the Drug uptake [39] was over 90%, the Activity (Candida albicans [40]) was “Active” and the Activity (Candida albicans [41]) was “Active”. For the same compound, the Activity (Candida albicans [42]) was “Active”, the Activity (Candida albicans [43]) was “Active” and the Activity (Candida albicans [44]) was “Active”. The Drug uptake [45] was “Active”, the Activity (Candida albicans [46]) was 90% and the Activity (Candida albicans [47]) was “Active”. The Activity (HEK-293T [48]) was “Non-toxic”.

— ChEMBL document CHEMBL6121051, “Dendritic Antifungal Peptides as Potent Agents against Drug-Resistant Candida albicans and Biofilm” (J Med Chem, 2025)
